Reference: article PMC4546118 (SpringerPlus, 2015)

Tests used:
[1] = Pharmacokinetics of VCM after intravenous administration to control and PN rats; conditions: 5 mg/kg intravenous bolus, two-compartment model, plasma LC/MS/MS
Procedure: (§1) Briefly, 3 days before the start of PN administration, cardiac catheterization was performed via the right jugular vein with a polyurethane catheter (0.6-mm ID, 0.9-mm OD, Primetech Co., Tokyo, Japan) in rats anesthetized with sodium pentobarbital, and given ampicillin for prevention of infection and local bupivacaine for pain relief. The cannulated rats were housed individually in cages with free access to food and water, and received saline at a rate of 0.1 mL/h for 3 days via the catheter with a syringe pump (ISIS Co., Ltd., Osaka, Japan), and daily ampicillin (2 mg/kg, 2-min infusion) for recovery from surgery. For PN administration, infusion of PN solution was started at a rate of 1.25 mL/h for 2 days under fasting and water-deprived conditions; PN solution consisting of glucose, amino acids, electrolytes, and vitamins (approximately 0.97 kcal/mL) was prepared by mixing PNTWIN No. 3 with VITAJECT (Fukushima et al. [2015]). Subsequently, PN administration was performed at a rate of 2.5 mL/h (viz., 60 mL/day, 58 kcal/day) for 7 days; likewise, the sham operated rats (control rats) underwent the same regimen with saline and allowed free access to food throughout the treatment.
(§2) Blood samples were taken 5, 15, 30, 45, 60, 90, 120, 180, 240, and 360 min after administration, and were centrifuged at 12,000 rpm for 15 min to collect the plasma fraction. In the intraduodenal administration study, the abdominal cavity was opened in anesthetized rats and the stomach was exposed. […] After administration, the incision was closed with a tissue adhesive and the pylorus was ligated. Blood samples were taken 5, 15, 30, 60, 90, 120, 180, 240, 300, and 360 min after administration, and plasma samples were collected by centrifugation. The collected plasma samples in both studies were immediately frozen at −80 °C until analysis.
(§3) After vortexing and centrifugation at 12,000 rpm for 15 min, the supernatant was diluted in 340 µL of distilled water and was passed through a filter, and 10 µL of the filtrate was injected into a Quattro Ultima LC/MS/MS system with a 2690 Separation Module (Waters Co, MA, UK). […] Mass spectrometry was conducted with electrospray ionization in positive mode (ESI+) under the following conditions: source temperature, 130 °C; cone voltage, 35 V; capillary voltage, 4.0 kV.
(§4) All pharmacokinetic analyses were performed using WinNonlin® Version 6.3 (Pharsight, Mountain View, CA). The structural parameters, including the absorption rate constant (ka), distribution volume of the central compartment (Vc), distribution volume of the peripheral compartment (Vp), total body clearance (CLtot), and distribution clearance (CLD2), and the secondary parameters including the maximum concentration (Cmax), time to maximum concentration (Tmax), distribution half-life (t1/2α), elimination half-life (t1/2β), and the area under the plasma concentration–time curve (AUC) were calculated. The bioavailability (F) was calculated using the following equation: F=AUCintraduodenal/Doseintraduodenal/AUCintravenous/Doseintravenous, where Dose represents the administered dosage.
(§5) All values are represented by the mean ± standard error (SE). Statistical differences of the means were assumed to be significant when p < 0.05 by the Mann–Whitney U test.

[2] = Pharmacokinetics of VCM after intraduodenal administration to control and PN rats; conditions: for F (bioavailability): 20 mg/kg intraduodenal vs 5 mg/kg intravenous, dose-normalised AUC ratio; for ka (absorption rate constant) / CLD2/F / Cmax (maximum concentration) / Vc/F / Vp/F / t1/2α (distribution half-life) / t1/2β (elimination half-life) / CLtot/F: 20 mg/kg intraduodenal, two-compartment model with first-order absorption, plasma LC/MS/MS; for ka (absorption rate constant): pylorus ligated
Procedure: as §1, §2, §3, §4, §5

[3] = design: method as in Kusama et al. [1998]; conditions: binding to plasma proteins; ref Kusama et al. [1998]; cited from earlier work
[4] = PN rats (parenteral nutrition for 9 days), mean of n = 4
[5] = PN rats (parenteral nutrition for 9 days), mean of n = 4, p<0.05 vs control

SMILES: CN[C@H](CC(C)C)C(=O)N[C@H]1C(=O)N[C@@H](CC(N)=O)C(=O)N[C@H]2C(=O)N[C@H]3C(=O)N[C@H](C(=O)N[C@H](C(=O)O)c4cc(O)cc(O)c4-c4cc3ccc4O)[C@H](O)c3ccc(c(Cl)c3)Oc3cc2cc(c3O[C@@H]2O[C@H](CO)[C@@H](O)[C@H](O)[C@H]2O[C@H]2C[C@](C)(N)[C@H](O)[C@H](C)O2)Oc2ccc(cc2Cl)[C@H]1O [VCM, vancomycin]
- AUC (area under the plasma concentration vs time curve) [1, 4]: 807 µg·min/mL
- CLD2 (distribution clearance) [1, 4]: 4.23 mL/min/kg
- CLtot (total body clearance) [1, 4]: 6.22 mL/min/kg
- Vc (distribution volume of the central compartment) [1, 4]: 0.234 L/kg
- Vp (distribution volume of the peripheral compartment) [1, 4]: 0.223 L/kg
- t1/2α (distribution half-life) [1, 4]: 13.72 min
- Vc (distribution volume of the central compartment) ([1]; control rats (sham, saline), male Wistar, mean of n = 4 (SE in own column)): 0.214 L/kg
- AUC (area under the plasma concentration vs time curve) ([1]; control rats, mean of n = 4): 788 µg·min/mL
- CLD2 (distribution clearance) ([1]; control rats, mean of n = 4): 6.26 mL/min/kg
- CLtot (total body clearance) ([1]; control rats, mean of n = 4): 6.44 mL/min/kg
- Vp (distribution volume of the peripheral compartment) ([1]; control rats, mean of n = 4): 0.283 L/kg
- t1/2α (distribution half-life) ([1]; control rats, mean of n = 4): 9.72 min
- F (bioavailability) [2, 5]: 1.295%
- ka (absorption rate constant) [2, 4]: 0.256 min⁻¹
- CLD2/F [2, 4]: 1360 mL/min/kg
- Cmax (maximum concentration) [2, 4]: 267 ng/mL
- Vc/F [2, 4]: 89 L/kg
- Vp/F [2, 4]: 29 L/kg
- t1/2α (distribution half-life) [2, 4]: 26.2 min
- t1/2β (elimination half-life) [2, 4]: 150 min
- CLtot/F [2, 5]: 590 mL/min/kg
- ka (absorption rate constant) ([2]; control rats (sham, saline), mean of n = 4): 0.214 min⁻¹
- F (bioavailability) ([2]; control rats, mean of n = 4): 0.504%
- CLD2/F ([2]; control rats, mean of n = 4): 2050 mL/min/kg
- CLtot/F ([2]; control rats, mean of n = 4): 1340 mL/min/kg
- Cmax (maximum concentration) ([2]; control rats, mean of n = 4): 111 ng/mL
- Vc/F ([2]; control rats, mean of n = 4): 158 L/kg
- Vp/F ([2]; control rats, mean of n = 4): 107 L/kg
- t1/2α (distribution half-life) ([2]; control rats, mean of n = 4): 31.4 min
- t1/2β (elimination half-life) ([2]; control rats, mean of n = 4): 174 min
- protein binding rate [3]: approximately 47%
